Here are results for 2 compounds from DBAASP.

Test systems include Pseudomonas putida; Candida albicans; Escherichia coli; Saccharomyces cerevisiae; Serratia marcescens.
What all share (test): ≥ marks a high value that may be exact or a test limit, other limits are often not marked, values filed in µg/mL are converted to µM
The subject of assay [1] is Enterococcus faecalis WHO 14.
The subject of assay [2] is Bacillus subtilis ICTA-07.
Assay [3] has as its system Acinetobacter calcoaceticus ATCC 2305-5.
The subject of assay [4] is Micrococcus luteus ATCC 4698.
Assay [5] deals with Yersinia enterocolitica ATCC 9610.
The test system of assay [6] is Pseudomonas aeruginosa ATCC 27853.
Assay [7] concerns Proteus mirabilis ATCC 25933.
In assay [8] the test system is Salmonella enterica subsp. enterica serovar Typhimurium ATCC 14028.
Assay [9] relates to Bacillus subtilis KCTC 1021.
Assay [10] deals with Pseudomonas aeruginosa ATCC 9027.
Assay [11] has as its system Shigella dysenteriae ATCC 9752.
For assay [12], the system named is Staphylococcus epidermidis ATCC 12228.
The subject of assay [13] is Klebsiella pneumoniae ATCC 10031.

Each structure is given as a SMILES string. In brackets after ≈: the same amount, converted by molar mass.

Regarding `CC[C@H](C)[C@@H]1NC(=O)[C@H](CCCCN)NC(=O)[C@H](C(C)C)NC(=O)[C@H](CC(N)=O)NC(=O)[C@H](CC(=O)O)NC(=O)[C@@H]2CCCN2C(=O)[C@H](CC(C)C)NC(=O)CNC(=O)[C@H](Cc2ccc(O)cc2)NC(=O)[C@@H]2CSSC[C@@H]3NC(=O)[C@H](CCC(=O)O)NC(=O)[C@H]([C@@H](C)O)NC(=O)[C@H](CC(N)=O)NC(=O)[C@@H]4CSSC[C@H](NC(=O)[C@H](C)NC(=O)[C@@H]5CCCN5C(=O)[C@H](Cc5c[nH]c6ccccc56)NC(=O)[C@H](C)NC(=O)[C@H](CSSC[C@H](NC(=O)[C@H](CO)NC(=O)[C@H](Cc5ccc(O)cc5)NC(=O)[C@H](CCCCN)NC(=O)[C@@H](NC(=O)CNC(=O)[C@H](CCCN=C(N)N)NC(=O)[C@H](Cc5cnc[nH]5)NC(=O)[C@H](CCC(=O)O)NC(=O)[C@@H](NC(=O)[C@@H](NC(=O)[C@H](Cc5ccc(O)cc5)NC(=O)CNC(=O)[C@H](CC(=O)O)NC(=O)[C@@H](N)CCCCN)[C@@H](C)CC)[C@@H](C)CC)CSSC[C@@H](C(N)=O)NC(=O)[C@H](CCCCN)NC(=O)[C@H](CC(C)C)NC(=O)[C@H](CC(N)=O)NC(=O)[C@H](CC(N)=O)NC(=O)[C@H](CO)NC(=O)[C@H](CC(=O)O)NC(=O)[C@H](Cc5ccccc5)NC1=O)C(=O)N[C@@H](Cc1ccccc1)C(=O)N[C@@H](Cc1ccccc1)C(=O)NCC(=O)N[C@@H]([C@@H](C)O)C(=O)N[C@@H](CC(N)=O)C(=O)N[C@@H](CO)C(=O)N[C@@H](Cc1c[nH]c5ccccc15)C(=O)N4)NC(=O)[C@H](Cc1ccc(O)cc1)NC(=O)CNC(=O)[C@H](CO)NC(=O)[C@H](CO)NC(=O)CNC(=O)[C@H](CCCCN)NC(=O)[C@H](CCCCN)NC(=O)[C@H](CC(C)C)NC(=O)[C@H]([C@@H](C)O)NC3=O)C(=O)N[C@@H](Cc1c[nH]c3ccccc13)C(=O)N2` [KDGYIIEHRGCKYSCFFGTNSWCNTECTLKKGSSGYCAWPACWCYGLPDNVKIFDSNNLKC], the MIC – broadly, the lowest concentration that inhibits growth of the organism – in assay [1] was at least 34 µM; in assay [2], 22 µM (≈ 152 µg/mL); in assay [3] it was at least 43 µM; in [4], at least 43 µM; in [5] it was at least 49 µM; in assay [6], 77 µM (≈ 533 µg/mL).
For the compound `CC[C@H](C)[C@H](NC(=O)[C@H](CC(C)C)NC(=O)[C@H](CO)NC(=O)[C@H](Cc1ccccc1)NC(=O)[C@H](CC(C)C)NC(=O)[C@@H](N)CO)C(=O)N[C@@H](CCCCN)C(=O)N[C@@H](C)C(=O)NCC(=O)N[C@@H](C)C(=O)N[C@@H](CCCCN)C(=O)N[C@@H](Cc1ccccc1)C(=O)N[C@@H](CC(C)C)C(=O)NCC(=O)N[C@@H](CCCCN)C(=O)N[C@@H](CC(N)=O)C(=O)N[C@@H](CC(C)C)C(=O)N[C@@H](CC(C)C)C(=O)N[C@@H](CCCCN)C(=O)N[C@@H](CCC(N)=O)C(=O)NCC(=O)N[C@@H](C)C(=O)N[C@@H](CS)C(=O)N[C@@H](Cc1ccc(O)cc1)C(=O)N[C@@H](C)C(=O)N[C@@H](C)C(=O)N[C@H]1CSSC[C@@H](C(=O)O)NC(=O)[C@H](CCC(N)=O)NC(=O)[C@H](CCCCN)NC(=O)[C@H](CO)NC(=O)[C@H](C)NC(=O)[C@H](CCCCN)NC1=O` [SLFSLIKAGAKFLGKNLLKQGACYAACKASKQC], the MIC against Pseudomonas putida is 14.4 µM (≈ 50 µg/mL); in assay [7], at least 57.8 µM; in assay [8], above 57.8 µM; against Candida albicans, above 57.8 µM; in assay [9], 14.4 µM (≈ 50 µg/mL); in assay [4], 1.44 µM (≈ 5 µg/mL). For the same compound, the MIC in the assay with Escherichia coli was 7.22 µM (≈ 25 µg/mL); in [10], 14.4 µM (≈ 50 µg/mL); in assay [11] it was 7.22 µM (≈ 25 µg/mL); in assay [12], 14.4 µM (≈ 50 µg/mL); in the assay on Saccharomyces cerevisiae, at least 57.8 µM; in assay [13], 28.9 µM (≈ 99.9 µg/mL). This compound gave a minimum inhibitory concentration (MIC) against Serratia marcescens of at least 57.8 µM.
